Measurements: patent publication US6737383B1, “Herbicidal oxadiazolidines” (priority 1999, dated 2004)

Columns and labels:
bamyardgrass = experiment: Test B flood test barnyardgrass; format: in vivo, Echinochloa crus-galli
Procedure, shortened: (§1)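 Read-out is a visual response score from 0 (no effect) to 10 (complete control), assigned by comparison with untreated controls. Treatment was applied at the 2-leaf stage, and plants stayed in the greenhouse for twelve to sixteen days before scoring.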

purple nutsedge = experiment: Test B pre/postemergence purple nutsedge; format: in vivo, Cyperus rotundus
Procedure, shortened: (§2)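 Test chemicals in a non-phytotoxic solvent mixture with surfactant were sprayed preemergence onto planted seeds and postemergence onto plants 2 to 18 cm tall (1- to 4-leaf stage). After twelve to sixteen days in a greenhouse, injury was visually rated against untreated controls from 0 (no effect) to 10 (complete control).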

rice = experiment: Test B flood test rice; format: in vivo, Oryza sativa
Procedure, shortened: as §1

smallflower flatsedge = experiment: Test B flood test smallflower flatsedge; format: in vivo, Cyperus difformis
Procedure, shortened: as §1

giant foxtail = experiment: Test B pre/postemergence giant foxtail; format: in vivo, Setaria faberii
Procedure, shortened: as §2

wheat = experiment: Test B pre/postemergence wheat; format: in vivo, Triticum aestivum
Procedure, shortened: as §2

wild oat = experiment: Test B pre/postemergence wild oat; format: in vivo, Avena fatua
Procedure, shortened: as §2

surinam grass = experiment: Test B pre/postemergence surinam grass; format: in vivo, Brachiaria decumbens
Procedure, shortened: as §2

rape = experiment: Test B pre/postemergence rape; format: in vivo, Brassica napus
Procedure, shortened: as §2

duck salad = experiment: Test B flood test duck salad; format: in vivo, Heteranthera limosa
Procedure, shortened: as §1

velvetleaf = experiment: Test B pre/postemergence velvetleaf; format: in vivo, Abutilon theophrasti
Procedure, shortened: as §2

corn = experiment: Test B pre/postemergence corn; format: in vivo, Zea mays
Procedure, shortened: as §2

soybean = experiment: Test B pre/postemergence soybean; format: in vivo, Glycine max
Procedure, shortened: as §2

blackgrass = experiment: Test B pre/postemergence blackgrass; format: in vivo, Alopecurus myosuroides
Procedure, shortened: as §2

bedstraw = experiment: Test B pre/postemergence bedstraw; format: in vivo, Galium aparine; conditions: Preemergence
Procedure, shortened: as §2

cocklebur = experiment: Test B pre/postemergence cocklebur; format: in vivo, Xanthium strumarium
Procedure, shortened: as §2

morningglory = experiment: Test B pre/postemergence morningglory; format: in vivo, Ipomoea hederacea
Procedure, shortened: as §2

sugar beet = experiment: Test B pre/postemergence sugar beet; format: in vivo, Beta vulgaris
Procedure, shortened: as §2

crabgrass = experiment: Test B pre/postemergence crabgrass; format: in vivo, Digitaria sanguinalis
Procedure, shortened: as §2

pigweed = experiment: Test B pre/postemergence pigweed; format: in vivo, Amaranthus retroflexus
Procedure, shortened: as §2

[1] = Rate 62 g/ha, flood test species, Pre-emergence, visual evaluation after twelve to sixteen days
[2] = Rate 125 g/ha, under heading Pre-emergence, flood test species, visual evaluation after twelve to sixteen days
[3] = Rate 250 g/ha, Pre-emergence (flood test species), scale 0 to 10, 0 is no effect, 10 is complete control
[4] = Rate 500 g/ha, Pre-emergence section of Table B, 0 to 10 scale (0 no effect, 10 complete control)
[5] = Postemergence, Rate 62 g/ha, scale of 0 to 10, 0 is no effect, 10 is complete control
[6] = Postemergence, Rate 125 g/ha, scale of 0 to 10 where 0 is no effect and 10 is complete control
[7] = Postemergence, Rate 250 g/ha, scale of 0 to 10, 0 is no effect, 10 is complete control
[8] = Postemergence, Rate 500 g/ha, scale of 0 to 10 where 0 is no effect and 10 is complete control
[9] = Preemergence, Rate 62 g/ha, scale 0 to 10 (0 no effect, 10 complete control)
[10] = Preemergence, Rate 125 g/ha, scale of 0 to 10 where 0 is no effect and 10 is complete control
[11] = Preemergence, Rate 500 g/ha, scale of 0 to 10 where 0 is no effect and 10 is complete control

COC(C)n1c(=O)on(C(=O)N(c2ccc(F)cc2F)C(C)C)c1=O (stereo not drawn) [Compound 593]
Plant response rating, Barnyardgrass (0 to 10 scale, 0 is no effect, 10 is complete control) (bamyardgrass; [1]): 0 | Barnyardgrass plant response rating (0 to 10 scale, 0 is no effect, 10 is complete control) (bamyardgrass; [2]): 0 | Barnyardgrass plant response rating (bamyardgrass; [3]): 0 | Barnyardgrass plant response rating (bamyardgrass; [4]): 0 | Nutsedge plant response rating (purple nutsedge; [5]): 0 | Plant response rating, Nutsedge (purple nutsedge; [6]): 0 | Nutsedge plant response rating (purple nutsedge; [7]): 0 | Plant response rating, Nutsedge (purple nutsedge; [8]): 0 | Nutsedge plant response rating (purple nutsedge; [9]): 0 | Nutsedge plant response rating (purple nutsedge; [10]): 0 | Plant response rating, Nutsedge (purple nutsedge; [11]): 2 | Plant response rating, Rice (0 to 10 scale, 0 is no effect, 10 is complete control) (rice; [1]): 0 | Rice plant response rating (0 to 10 scale, 0 is no effect, 10 is complete control) (rice; [2]): 0 | Rice plant response rating (rice; [3]): 0 | Rice plant response rating (rice; [4]): 0 | Plant response rating, S. Flatsedge (0 to 10 scale, 0 is no effect, 10 is complete control) (smallflower flatsedge; [1]): 0 | S. Flatsedge plant response rating (0 to 10 scale, 0 is no effect, 10 is complete control) (smallflower flatsedge; [2]): 0 | S. Flatsedge plant response rating (smallflower flatsedge; [3]): 0 | S. Flatsedge plant response rating (smallflower flatsedge; [4]): 0 | Giant foxtail plant response rating (giant foxtail; [5]): 0 | Plant response rating, Giant foxtail (giant foxtail; [6]): 0 | Giant foxtail plant response rating (giant foxtail; [7]): 0 | Plant response rating, Giant foxtail (giant foxtail; [8]): 0 | Giant foxtail plant response rating (giant foxtail; [9]): 0 | Giant foxtail plant response rating (giant foxtail; [10]): 0 | Plant response rating, Giant foxtail (giant foxtail; [11]): 0 | Plant response rating, Wheat (wheat; [6]): 0 | Wheat plant response rating (wheat; [7]): 0 | Plant response rating, Wheat (wheat; [8]): 0 | Wheat plant response rating (wheat; [9]): 0 | Wheat plant response rating (wheat; [10]): 0 | Plant response rating, Wheat (wheat; [11]): 0 | Plant response rating, Wild oats (wild oat; [6]): 0 | Wild oats plant response rating (wild oat; [7]): 0 | Plant response rating, Wild oats (wild oat; [8]): 0 | Wild oats plant response rating (wild oat; [9]): 0 | Wild oats plant response rating (wild oat; [10]): 0 | Plant response rating, Wild oats (wild oat; [11]): 0 | B. signalgrass plant response rating (surinam grass; [5]): 0 | Plant response rating, B. signalgrass (surinam grass; [6]): 0 | B. signalgrass plant response rating (surinam grass; [7]): 0 | Plant response rating, B. signalgrass (surinam grass; [8]): 0 | B. signalgrass plant response rating (surinam grass; [9]): 0 | B. signalgrass plant response rating (surinam grass; [10]): 0 | B. signalgrass plant response rating (0 to 10 scale, 0 is no effect, 10 is complete control) (surinam grass; Preemergence, Rate 250 g/ha): 0 | B. signalgrass plant response rating (surinam grass; [11]): 0 | Rape plant response rating (rape; [5]): 0 | Plant response rating, Rape (rape; [6]): 0 | Rape plant response rating (rape; [7]): 0 | Plant response rating, Rape (rape; [8]): 0 | Rape plant response rating (rape; [9]): 0 | Rape plant response rating (rape; [10]): 0 | Plant response rating, Rape (rape; [11]): 0 | Plant response rating, Ducksalad (0 to 10 scale, 0 is no effect, 10 is complete control) (duck salad; [1]): 0 | Ducksalad plant response rating (0 to 10 scale, 0 is no effect, 10 is complete control) (duck salad; [2]): 0 | Ducksalad plant response rating (duck salad; [3]): 0 | Ducksalad plant response rating (duck salad; [4]): 0 | Plant response rating, Velvetleaf (velvetleaf; [6]): 0 | Velvetleaf plant response rating (velvetleaf; [7]): 0 | Plant response rating, Velvetleaf (velvetleaf; [8]): 0 | Velvetleaf plant response rating (velvetleaf; [9]): 0 | Velvetleaf plant response rating (velvetleaf; [10]): 0 | Plant response rating, Velvetleaf (velvetleaf; [11]): 0 | Corn plant response rating (corn; [5]): 0 | Plant response rating, Corn (corn; [6]): 0 | Corn plant response rating (corn; [7]): 0 | Plant response rating, Corn (corn; [8]): 0 | Corn plant response rating (corn; [9]): 0 | Corn plant response rating (corn; [10]): 0 | Corn plant response rating (0 to 10 scale) (corn; Preemergence, Rate 250 g/ha): 0 | Plant response rating, Corn (corn; [11]): 0 | Plant response rating, Soybean (soybean; [6]): 0 | Soybean plant response rating (soybean; [7]): 0 | Plant response rating, Soybean (soybean; [8]): 1 | Soybean plant response rating (soybean; [9]): 0 | Soybean plant response rating (soybean; [10]): 0 | Plant response rating, Soybean (soybean; [11]): 0 | Blackgrass plant response rating (blackgrass; [5]): 0 | Plant response rating, Blackgrass (blackgrass; [6]): 0 | Blackgrass plant response rating (blackgrass; [7]): 0 | Plant response rating, Blackgrass (blackgrass; [8]): 0 | Blackgrass plant response rating (blackgrass; [9]): 0 | Blackgrass plant response rating (blackgrass; [10]): 0 | Blackgrass plant response rating (0 to 10 scale) (blackgrass; Preemergence, Rate 250 g/ha): 0 | Blackgrass plant response rating (blackgrass; [11]): 0 | Bedstraw plant response rating (bedstraw; Rate 62 g/ha, scale 0 to 10 (0 no effect, 10 complete control)): 0 | Bedstraw plant response rating (0 to 10 scale) (bedstraw; Rate 250 g/ha): 0 | Cocklebur plant response rating (cocklebur; [5]): 0 | Plant response rating, Cocklebur (cocklebur; [6]): 0 | Cocklebur plant response rating (cocklebur; [7]): 0 | Plant response rating, Cocklebur (cocklebur; [8]): 0 | Cocklebur plant response rating (cocklebur; [9]): 0 | Cocklebur plant response rating (cocklebur; [10]): 0 | Cocklebur plant response rating (0 to 10 scale) (cocklebur; Preemergence, Rate 250 g/ha): 0 | Plant response rating, Cocklebur (cocklebur; [11]): 0 | Morningglory plant response rating (morningglory; [5]): 0 | Plant response rating, Morningglory (morningglory; [6]): 0 | Morningglory plant response rating (morningglory; [7]): 0 | Plant response rating, Morningglory (morningglory; [8]): 2 | Morningglory plant response rating (morningglory; [9]): 0 | Morningglory plant response rating (morningglory; [10]): 0 | Plant response rating, Morningglory (morningglory; [11]): 0 | Plant response rating, Sugarbeets (sugar beet; [6]): 0 | Sugarbeets plant response rating (sugar beet; [7]): 0 | Plant response rating, Sugarbeets (sugar beet; [8]): 0 | Sugarbeets plant response rating (sugar beet; [9]): 0 | Sugarbeets plant response rating (sugar beet; [10]): 0 | Plant response rating, Sugarbeets (sugar beet; [11]): 0 | Crabgrass plant response rating (crabgrass; [5]): 0 | Plant response rating, Crabgrass (crabgrass; [6]): 0 | Crabgrass plant response rating (crabgrass; [7]): 0 | Crabgrass plant response rating (crabgrass; [9]): 0 | Crabgrass plant response rating (crabgrass; [10]): 0 | Plant response rating, Crabgrass (crabgrass; [11]): 0 | Plant response rating, Redroot pigweed (pigweed; [6]): 0 | Redroot pigweed plant response rating (pigweed; [7]): 0 | Plant response rating, Redroot pigweed (pigweed; [8]): 0 | Redroot pigweed plant response rating (pigweed; [9]): 0 | Redroot pigweed plant response rating (pigweed; [10]): 0 | Plant response rating, Redroot pigweed (pigweed; [11]): 0
